Experimental data as given in PMC10205807, “Cross-species comparison in nonclinical pharmacokinetics of lenvatinib by a simple HPLC with ultraviolet detection” (Scientific Reports, 2023).

Columns and labels:
[1] = PK study in rats (intravenous and oral); type: in vivo; settings: for Tmax: median (range)
Description: Sprague–Dawley male rats were purchased from Charles River Japan, Inc., and were used for the PK study after 8 days of an acclimatization period. Rats were 8 weeks old when lenvatinib was dosed and the body weight range was 0.28–0.31 (kg). Rats were fasted a day before the PK study and feeding was resumed 4 h postdose. Dosing solution of lenvatinib used in the rat PK study was the same as that in the mice PK study, and the dose levels were 3 mg/kg for the intravenous administration via femoral vein, and 3, 10, and 30 mg/kg for the oral administration by gastric gavage (n = 4/dose). Approximately 0.25 mL of blood samples were obtained from the jugular vein using heparinized syringes at predose, and at 5, 15 and 30 min, and 1, 2, 4, 6, 8, 12 and 24 h postdose. Plasma sample preparation and sample storage were the same as those in the mice PK study.
PK parameters of lenvatinib were estimated by model independent analysis using a WinNonlin program (Version 4.1, Pharsight Corporation, Mountain View, CA). The time to reach the maximum plasma concentration (Tmax) and the maximum plasma concentration (Cmax) values were obtained directly from the plasma concentration data. Terminal half-life (T1/2) was calculated by ln2/ke, where ke is the slope of the regression line that fits the portion of the terminal phase (at least three time points) in the log-linear concentration–time curve. AUC0–t and AUMC0–t, the area under the concentration–time curves and the area under the first moment curve, from time = zero to time = t, respectively, were calculated using the lenvatinib concentrations in plasma by the linear/log trapezoidal method. AUC0–inf was calculated by AUC0–t + Ct/ke, and AUMC0–inf was AUMC0–t + Ct × t/ke + Ct/(ke)^2, where Ct is the last measurable concentration at time = t. The plasma concentration at time zero for the intravenous dose was extrapolated, while zero was used for the oral doses. Mean residence time (MRT), total plasma clearance (CLtot) and the volume of distribution at steady state (Vdss) were calculated by AUMC0–inf/AUC0–inf, Dose/AUC0–inf and CLtot × MRT, respectively. Oral bioavailability (F) was estimated by comparing dose-normalized AUC0–inf after oral (AUC0–inf.po) and intravenous (AUC0–inf.iv) administration as follows: F (%) = (AUC0–inf.po/AUC0–inf.iv) × 100.

[2] = test system: plasma protein; assay: in vitro plasma protein binding, dogs; type: in vitro ADME
[3] = test system: plasma protein; assay: in vitro plasma protein binding, monkeys; type: in vitro ADME
[4] = Stability of lenvatinib in dog plasma and processed samples; type: physicochemical, dogs; settings: dog plasma; for Freeze/thaw stability, mean percentage bias from the theoretical values: 3 cycles
Description: Calibration samples and QC samples for the reproducibility assessment were prepared by spiking 0.05 mL of the working standard solutions to blank plasma (0.05 mL), and QC samples for the stability assessment were prepared by fortifying 0.05 mL of the solution to 1.5 mL of bank plasma. Lenvatinib concentrations in plasma were 0.005, 0.01, 0.03, 0.1, 0.3, 1, 3, 10, 30, and 100 μg/mL for the calibration samples, and were 0.005, 0.01, 1, and 100 μg/mL for the QC samples for reproducibility assessment. Lenvatinib concentrations of QC samples for the stability assessment were 0.01, 1, and 80 μg/mL.
The developed method for the determination of lenvatinib concentrations in plasma was validated and the following validation parameters including linearity, selectivity, intra- and inter-batch reproducibility, extraction recovery, and stability were evaluated in accordance with the bioanalytical guidelines by United States Food and Drug Administration (US-FDA)[7]. […] In the linearity assessment, accuracy of each calibration sample was determined to ensure that relative error (RE) at each concentration was within ± 15% (within ± 20% at the LLOQ). […] Intra-batch accuracy and precision were evaluated using QC samples at the four concentrations, LLOQ, low QC (LQC), mid QC (MQC), and ULOQ. […] Inter-batch accuracy and precision were evaluated by testing a single sample at each concentration across five batches (n = 5 in total). […] Extraction recoveries of lenvatinib and the IS from plasma samples of the four species were evaluated. The recoveries of lenvatinib at the low, mid, and high QC levels (triplicates per concentration), and that of the IS (0.5 μg/mL) were determined. […] Stability of lenvatinib in plasma and processed samples was assessed at the low and high QC levels. Lenvatinib concentrations in samples after storage were compared to the theoretical concentrations and RE values were calculated. […] Freeze–thaw stability in plasma was evaluated up to three freeze–thaw cycles and frozen stability in plasma was evaluated at − 15 °C or below for 4 weeks (mice, rats, and dogs) or 6 weeks (monkeys). […]

[5] = male, Sprague-Dawley, rat, plasma, intravenous 3 mg/kg
[6] = male, Sprague-Dawley, rat, plasma, oral 3 mg/kg
[7] = male, Sprague-Dawley, rat, plasma, oral 10 mg/kg
[8] = male, Sprague-Dawley, rat, plasma, oral 30 mg/kg

CLint (hepatic intrinsic clearance) ([1]; estimated from oral PK, Fa and Fg assumed unity, BW 0.2 kg): 1440 mL/h | AUC(0-inf) [1, 5]: 30100 ± 1330 ng·h/mL | MRT [1, 5]: 3.93 ± 0.19 h | C0 ([1]; male, Sprague-Dawley, rat, plasma, intravenous 3 mg/kg, extrapolated): 16000 ± 416 ng/mL | clearance ([1]; male, Sprague-Dawley, rat, plasma, intravenous 3 mg/kg, read-out: CLtot (converted)): 1.67 mL/min/kg | Vd ([1]; male, Sprague-Dawley, rat, plasma, intravenous 3 mg/kg, read-out: Vdss): 0.392 ± 0.0099 L/kg | half-life ([1]; male, Sprague-Dawley, rat, plasma, iv, 3 mg/kg, intravenous 3 mg/kg): 3.65 ± 0.09 h | AUC(0-inf) [1, 6]: 20700 ± 3120 ng·h/mL | Cmax [1, 6]: 6170 ± 1370 ng/mL | MRT [1, 6]: 4.46 ± 0.16 h | bioavailability ([1]; male, Sprague-Dawley, rat, plasma, oral 3 mg/kg vs intravenous 3 mg/kg, read-out: F (oral bioavailability)): 68.7% | Tmax [1, 6]: 0.5 h | AUC(0-inf) [1, 7]: 78300 ± 6580 ng·h/mL | Cmax [1, 7]: 16600 ± 1240 ng/mL | MRT [1, 7]: 6.31 ± 0.53 h | Tmax [1, 7]: 0.5 h | AUC(0-inf) [1, 8]: 146000 ± 18500 ng·h/mL | Cmax [1, 8]: 23200 ± 4770 ng/mL | MRT [1, 8]: 6.86 ± 1.02 h | Tmax [1, 8]: 1 h | half-life ([1]; male, Sprague-Dawley, rat, plasma, po, 3 mg/kg, oral 3 mg/kg): 3.61 ± 0.21 h | half-life ([1]; male, Sprague-Dawley, rat, plasma, po, 10 mg/kg, oral 10 mg/kg): 5.27 ± 0.33 h | half-life ([1]; male, Sprague-Dawley, rat, plasma, po, 30 mg/kg, across 3, 10, and 30 mg/kg): 3.61 to 5.27 h | half-life ([1]; male, Sprague-Dawley, rat, plasma, po, 30 mg/kg, oral 30 mg/kg): 4.95 ± 0.77 h | fraction unbound at 0.3 μg/mL ([2]; dog plasma, 0.3 μg/mL): 0.084 | fraction unbound ([2]; dog, plasma, dogs, 0.3–30 μg/mL, read-out: average fp (unbound fraction in plasma)): 0.089 | fraction unbound at 0.3 μg/mL ([3]; monkey plasma, 0.3 μg/mL): 0.039 | fraction unbound ([3]; monkey, plasma, monkeys, 0.3–30 μg/mL, read-out: average fp (unbound fraction in plasma)): 0.0394 | Freeze/thaw stability, mean percentage bias from the theoretical values ([4]; HQC 80 μg/mL): 0.6% | Freeze/thaw stability, mean percentage bias from the theoretical values ([4]; MQC 1 μg/mL): 1.5% | Frozen stability, mean percentage bias from the theoretical values ([4]; below − 15 °C, 4 weeks, HQC 80 μg/mL): 3.1%
Compound: COc1cc2nccc(Oc3ccc(NC(=O)NC4CC4)c(Cl)c3)c2cc1C(N)=O [lenvatinib, Lenvatinib]
